Results as given in ChEMBL document CHEMBL1136711, “Synthesis and SAR of bicyclic heteroaryl hydroxamic acid MMP and TACE inhibitors” (Bioorg Med Chem Lett, 2003).
pIC50: −log10 of the molar value.

Columns and labels:
[1] = target: Matrix metalloproteinase-9 (Homo sapiens, UniProt P14780); assay: Inhibitory activity against matrix metalloprotease 9 (MMP-9).
Collagenase 3 = Collagenase 3 (Homo sapiens, UniProt P45452); assay: Inhibitory activity against matrix metalloprotease 13 (MMP-13).
[2] = target: Disintegrin and metalloproteinase domain-containing protein 17 (Homo sapiens, UniProt P78536); assay: Inhibitory activity against TACE.
Interstitial collagenase = target: T1, Interstitial collagenase (Homo sapiens, UniProt P03956); assay: Inhibitory activity against matrix metalloprotease 1 (MMP-1).
T1 sequence (P03956 whole entry): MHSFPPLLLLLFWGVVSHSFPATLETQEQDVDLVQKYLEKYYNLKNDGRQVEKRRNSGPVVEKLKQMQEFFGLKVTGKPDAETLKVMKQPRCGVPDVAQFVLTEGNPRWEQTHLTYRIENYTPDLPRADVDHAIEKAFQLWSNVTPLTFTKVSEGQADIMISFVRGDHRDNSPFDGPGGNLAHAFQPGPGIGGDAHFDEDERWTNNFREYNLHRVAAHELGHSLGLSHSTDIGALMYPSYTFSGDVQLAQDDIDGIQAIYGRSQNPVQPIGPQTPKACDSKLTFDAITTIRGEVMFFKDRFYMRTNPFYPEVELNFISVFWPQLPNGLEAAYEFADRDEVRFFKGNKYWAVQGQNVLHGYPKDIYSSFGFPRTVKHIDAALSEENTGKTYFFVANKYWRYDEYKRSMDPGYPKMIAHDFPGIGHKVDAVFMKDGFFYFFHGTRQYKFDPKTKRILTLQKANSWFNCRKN

Bos taurus = species: Bos taurus; assay: Ex vivo inhibition of cartilage degradation at 100 nM concentration in the bovine articular cartilage explant assay; format: functional; details: Cartilage tissue
Rattus norvegicus = assay: In vivo inhibition of cartilage degradation at 50 mpk po bid in the rat sponge-wrapped cartilage implant model; format: functional
Mus musculus [3] = assay: In vivo inhibition of MMP-13 at 50 mpk po 1 hr after dosing in the mouse dialysis tubing implant assay; format: functional
THP-1 = assay: In vitro inhibition of TNF-alpha release at a concentration of 3 uM by using THP cellular assay; format: functional, cell-based; details: Homo sapiens
Mus musculus [4] = assay: In vivo inhibition of MMP-13 at 25 mpk po 1 hr after dosing in the mouse dialysis tubing implant assay; format: functional

Sequence of Disintegrin and metalloproteinase domain-containing protein 17 (P78536 whole entry, the tested form may be a part): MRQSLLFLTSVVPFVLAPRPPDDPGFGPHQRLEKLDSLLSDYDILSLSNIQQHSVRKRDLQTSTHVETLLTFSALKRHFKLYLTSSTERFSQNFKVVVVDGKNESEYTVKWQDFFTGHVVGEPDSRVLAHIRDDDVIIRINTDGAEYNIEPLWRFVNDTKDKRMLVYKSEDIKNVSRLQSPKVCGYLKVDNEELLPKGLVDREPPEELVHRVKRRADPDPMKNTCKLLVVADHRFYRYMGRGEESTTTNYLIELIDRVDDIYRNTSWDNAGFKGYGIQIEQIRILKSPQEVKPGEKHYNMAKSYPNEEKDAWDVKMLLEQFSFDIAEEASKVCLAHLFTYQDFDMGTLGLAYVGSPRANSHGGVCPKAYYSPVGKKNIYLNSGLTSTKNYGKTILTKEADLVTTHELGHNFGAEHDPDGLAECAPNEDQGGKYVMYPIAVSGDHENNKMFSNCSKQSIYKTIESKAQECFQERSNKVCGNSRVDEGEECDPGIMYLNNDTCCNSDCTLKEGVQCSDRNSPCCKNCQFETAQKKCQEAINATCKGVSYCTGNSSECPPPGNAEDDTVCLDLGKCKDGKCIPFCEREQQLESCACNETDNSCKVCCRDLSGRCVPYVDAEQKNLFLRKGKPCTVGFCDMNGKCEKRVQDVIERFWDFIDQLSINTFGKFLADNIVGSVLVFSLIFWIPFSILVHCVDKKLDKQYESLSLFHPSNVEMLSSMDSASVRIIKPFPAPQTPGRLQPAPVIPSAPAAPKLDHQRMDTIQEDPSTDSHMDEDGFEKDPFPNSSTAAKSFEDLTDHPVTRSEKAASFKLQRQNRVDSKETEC
Sequence of Matrix metalloproteinase-9 (P14780 whole entry): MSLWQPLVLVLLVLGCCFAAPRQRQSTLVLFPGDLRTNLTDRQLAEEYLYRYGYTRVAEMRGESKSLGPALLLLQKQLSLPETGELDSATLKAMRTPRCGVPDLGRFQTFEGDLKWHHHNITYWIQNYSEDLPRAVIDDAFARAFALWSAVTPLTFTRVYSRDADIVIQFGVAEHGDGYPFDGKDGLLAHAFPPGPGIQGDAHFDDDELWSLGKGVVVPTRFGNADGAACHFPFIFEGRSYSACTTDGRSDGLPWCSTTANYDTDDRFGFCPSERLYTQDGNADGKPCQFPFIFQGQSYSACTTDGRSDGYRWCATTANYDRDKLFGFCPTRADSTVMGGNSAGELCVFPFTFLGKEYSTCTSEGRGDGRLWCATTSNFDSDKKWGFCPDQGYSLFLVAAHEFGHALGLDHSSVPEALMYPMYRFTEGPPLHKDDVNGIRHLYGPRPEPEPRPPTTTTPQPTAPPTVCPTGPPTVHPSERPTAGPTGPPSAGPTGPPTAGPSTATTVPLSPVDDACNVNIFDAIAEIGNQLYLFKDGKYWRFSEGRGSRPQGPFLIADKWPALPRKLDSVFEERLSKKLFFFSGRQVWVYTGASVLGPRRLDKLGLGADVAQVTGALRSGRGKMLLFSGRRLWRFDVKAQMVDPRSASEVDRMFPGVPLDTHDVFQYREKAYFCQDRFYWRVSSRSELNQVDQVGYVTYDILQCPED

| pIC50 [1] | pIC50 (Collagenase 3) | pIC50 [2] | Structure (SMILES) | pIC50 (Interstitial collagenase) | other results |
| --- | --- | --- | --- | --- | --- |
| 7.00 |  |  | CC#CCOc1ccc(S(=O)(=O)N(C)c2c(C(=O)NO)cnc3c2c(C)nn3C)cc1 |  |  |
| 8.22 | 7.70 | 6.36 | COc1ccc(S(=O)(=O)N(Cc2cccnc2)c2c(C(=O)NO)cnc3c2cnn3-c2ccccc2)cc1 |  |  |
| < 6.00 | < 6.00 | < 6.00 | Cc1ccc(S(=O)(=O)N(Cc2cccnc2)c2c(C(=O)NO)cnc3cc(C(F)(F)F)ccc23)cc1 | < 6.00 |  |
| 6.23 | 6.77 | < 6.00 | Cc1nn(C)c2ncc(C(=O)NO)c(N(C)S(=O)(=O)c3ccc(F)cc3)c12 | 6.75 |  |
| 8.70 |  |  | COc1ccc(S(=O)(=O)N(Cc2cccnc2)c2c(C(=O)NO)cnc3snc(C)c23)cc1 |  |  |
|  |  | 8.22 | CC#CCOc1ccc(S(=O)(=O)N(C)c2c(C(=O)NO)cnc3onc(C)c23)cc1 |  |  |
|  |  | 6.53 | COc1ccc(S(=O)(=O)N(C)c2c(C(=O)NO)cnc3c(Br)cccc23)cc1 |  |  |
| 8.70 |  | < 7.00 | Cc1nn(C)c2ncc(C(=O)NO)c(N(C)S(=O)(=O)c3ccc(Oc4ccncc4)cc3)c12 |  | inhibition at 0.1 µM (Bos taurus): 61%; inhibition in vivo at 25 mg/kg (Mus musculus [4]): 54%; inhibition in vivo at 50 mg/kg (Rattus norvegicus): 46% |
| 7.96 | 8.15 | < 6.00 | COc1ccc(S(=O)(=O)N(Cc2ccccc2)c2c(C(=O)NO)cnc3cc(Br)ccc23)cc1 |  |  |

The remaining lines, values behind:

| Structure (SMILES) | pIC50 [1] | pIC50 (Collagenase 3) | pIC50 [2] | pIC50 (Interstitial collagenase) | other results |
| --- | --- | --- | --- | --- | --- |
| COc1ccc(S(=O)(=O)N(Cc2cccnc2)c2c(C(=O)NO)cnc3c(I)cccc23)cc1 | 8.52 | 8.52 | 6.91 |  |  |
| Cc1nn(C)c2ncc(C(=O)NO)c(N(C)S(=O)(=O)c3ccc(Oc4ccc(Cl)cc4)cc3)c12 |  |  | 6.45 | 6.94 |  |
| COc1ccc(S(=O)(=O)N(Cc2cccnc2)c2c(C(=O)NO)cnc3cc(C(F)(F)F)ccc23)cc1 | 8.40 | 9.00 | 6.00 |  |  |
| CN(c1c(C(=O)NO)cnc2ccccc12)S(=O)(=O)c1ccc(Oc2ccncc2)cc1 |  | 9.00 | 6.91 | 5.99 | inhibition at 0.1 µM (Bos taurus): 42%; inhibition in vivo at 50 mg/kg (Rattus norvegicus): 44%; inhibition in vivo at 50 mg/kg (Mus musculus [3]): 90% |
| CC#CCOc1ccc(S(=O)(=O)N(C)c2c(C(=O)NO)cnc3c(OC)cccc23)cc1 |  | 8.05 |  |  |  |
| O=C(NO)c1cnc2cc(C(F)(F)F)ccc2c1N(Cc1cccnc1)S(=O)(=O)c1ccc(-c2ccccc2)cc1 | 5.93 |  | 6.91 |  |  |
| CCCCOc1ccc(S(=O)(=O)N(C)c2c(C(=O)NO)cnc3c2c(C)nn3C)cc1 | 8.15 | 8.52 | 7.07 | 5.72 |  |
| CC#CCOc1ccc(S(=O)(=O)N(C)c2c(C(=O)NO)cnc3c(Br)cccc23)cc1 |  |  |  |  | inhibition (THP-1): 32% |
| COc1ccc(S(=O)(=O)N(Cc2ccccc2)c2c(C(=O)NO)cnc3ccc(C(F)(F)F)cc23)cc1 | 7.96 | 8.15 | < 6.00 |  |  |
| COc1ccc(S(=O)(=O)N(Cc2ccccc2)c2c(C(=O)NO)cnc3ccc(Br)cc23)cc1 | 8.10 | 8.22 | < 6.00 | 6.97 |  |
| COc1ccc(S(=O)(=O)N(Cc2cccnc2)c2c(C(=O)NO)cnc3c(-c4cccs4)cccc23)cc1 |  |  |  | 6.87 |  |
| C=Cc1cccc2c(N(C)S(=O)(=O)c3ccc(OC)cc3)c(C(=O)NO)cnc12 | 8.30 | 8.30 | 6.69 | 6.70 |  |
| COc1ccc(S(=O)(=O)N(Cc2cccnc2)c2c(C(=O)NO)cnc3c2c(C)nn3-c2ccccc2)cc1 |  |  |  | 6.94 |  |
